Experimental data as given in patent US9133104B2 (Chroma Therapeutics Ltd., priority 2005, dated 2015).

Columns and labels:
[1] = target: T1, histone deacetylase activity (HeLa nuclear extract); test: HDAC fluorescent activity assay (Biomol Fluor de Lys), HeLa nuclear extract; format: biochemical; conditions: Fluor de Lys substrate, IC50 range
T1 construct: Histone deacetylase activity from crude nuclear extract derived from HeLa cells was used for screening
Procedure: The ability of compounds to inhibit histone deacetylase activities was measured using the commercially available HDAC fluorescent activity assay from Biomol. In brief, the Fluor de Lys™ substrate, a lysine with an epsilon-amino acetylation, is incubated with the source of histone deacetylase activity (HeLa nuclear extract) in the presence or absence of inhibitor. Deacetylation of the substrate sensitises the substrate to Fluor de Lys™ developer, which generates a fluorophore. Thus, incubation of the substrate with a source of HDAC activity results in an increase in signal that is diminished in the presence of an HDAC inhibitor.
Data are expressed as a percentage of the control, measured in the absence of inhibitor, with background signal being subtracted from all samples, as follows:— % activity=((S^i−B)/(S^o−B))×100 where S^i is the signal in the presence of substrate, enzyme and inhibitor, S^o is the signal in the presence of substrate, enzyme and the vehicle in which the inhibitor is dissolved, and B is the background signal measured in the absence of enzyme.
IC50 values were determined by non-linear regression analysis, after fitting the results of eight data points to the equation for sigmoidal dose response with variable slope (% activity against log concentration of compound), using Graphpad Prism software.
Histone deacetylase activity from crude nuclear extract derived from HeLa cells was used for screening. The preparation, purchased from 4C (Seneffe, Belgium), was prepared from HeLa cells harvested whilst in exponential growth phase. The nuclear extract is prepared according to Dignam JD1983 Nucl. Acid. Res. 11, 1475-1489, snap frozen in liquid nitrogen and stored at −80° C. The final buffer composition was 20 mM Hepes, 100 mM KCl, 0.2 mM EDTA, 0.5 mM DTT, 0.2 mM PMSF and 20% (v/v) glycerol.

Hela cancer cell line = test: Cell inhibition assay (SRB cell viability), Hela; format: cell-based; conditions: 72 h, Hela cells, IC50 range
Procedure: (§1) The corresponding cancer cell lines (Hela, U937 and HUT) growing in log phase were harvested and seeded at 1000 cells/well (200 ul final volume) into 96-well tissue culture plates. Following 24 h of cell growth cells were treated with compounds (final concentration of 20 uM). Plates were then re-incubated for a further 72 h before a sulphorhodamine B (SRB) cell viability assay was conducted according to Skehan 1990 J Natl Canc Inst 82, 1107-1112.
(§2) Data were expressed as a percentage inhibition of the control, measured in the absence of inhibitor, as follows:— % inhibition=100−((S^i/S^o)×100) where S^i is the signal in the presence of inhibitor and S^o is the signal in the presence of DMSO. IC50 values were determined by non-linear regression analysis, after fitting the results of eight data points to the equation for sigmoidal dose response with variable slope (% activity against log concentration of compound), using Graphpad Prism software. […] NT=Not tested

HUT cancer cell line = test: Cell inhibition assay (SRB cell viability), HUT; format: cell-based; conditions: HUT cells, 72 h, IC50 range
Procedure: as §1, §2

Row | Compound | IC50 [1] | IC50 (Hela cancer cell line; Homo sapiens, HeLa) | IC50 (HUT cancer cell line) | IC50 (Hela cancer cell line)
1 | O=C(CCCCCCC(=O)N1CCCC1C(=O)N[C@@H](Cc1ccccc1)C(=O)O)NO (stereo partly drawn) [Compound 57, (S)-2-{[1-(7-Hydroxycarbamoyl-heptanoyl)-pyrrolidine-2-carbonyl]-amino}-3-phenyl-propionic acid] | > 1 µM | > 3.3 µM |  | 
2 | O=C(CCCCCCC(=O)N1Cc2ccccc2C[C@H]1C(=O)N[C@H](C(=O)O)c1ccccc1)NO [Compound 45, (S)-{[(S)-2-(7-Hydroxycarbamoyl-heptanoyl)-1,2,3,4-tetrahydro-isoquinoline-3-carbonyl]-amino}-phenyl-acetic acid] | > 1 µM | > 3.3 µM |  | 
3 | CCOC(=O)[C@H](COC(C)(C)C)NCc1cccc(NC(=O)CCCCCCC(=O)NO)c1 [Compound 32, (S)-3-tert-Butoxy-2-[3-(7-hydroxycarbamoyl-heptanoylamino)-benzylamino]-propionic acid ethyl ester] | < 0.1 µM | 0.33 to 3.3 µM | 0.33 to 3.3 µM | 
4 | O=C(CCCCCCC(=O)N1CCCC1C(=O)N[C@H](C(=O)O)c1ccccc1)NO (stereo partly drawn) [Compound 54, (S)-{[1-(7-Hydroxycarbamoyl-heptanoyl)-pyrrolidine-2-carbonyl]-amino}-phenyl-acetic acid] | > 1 µM | > 3.3 µM |  | 
5 | CC(C)(C)OC[C@H](NCc1cccc(NC(=O)CCCCCCC(=O)NO)c1)C(=O)O [Compound 33, (S)-3-tert-Butoxy-2-[3-(7-hydroxycarbamoyl-heptanoylamino)-benzylamino]-propionic acid] | 0.101 to 1 µM | > 3.3 µM |  | 
6 | O=C(CCCCCCC(=O)N1CCc2c([nH]c3ccccc23)C1C(=O)N[C@@H](Cc1ccccc1)C(=O)OC1CCCC1)NO (stereo partly drawn) [Compound 64, (S)-2-{[2-(7-Hydroxycarbamoyl-heptanoyl)-2,3,4,9-tetrahydro-1H-beta-carboline-1-carbonyl]-amino}-3-phenyl-propionic acid cyclopentyl ester] | 0.101 to 1 µM | 0.33 to 3.3 µM | 0.33 to 3.3 µM | 
7 | O=C(CCCCCCC(=O)Nc1cncc(CN[C@@H](Cc2ccccc2)C(=O)O)c1)NO [Compound 67, (S)-2-{[5-(7-Hydroxycarbamoyl-heptanoylamino)-pyridin-3-ylmethyl]-amino}-3-phenyl-propionic acid] | 0.101 to 1 µM | > 3.3 µM |  | 
8 | O=C(CCCCCCC(=O)Nc1cccc(CNC(=O)N[C@@H](Cc2ccccc2)C(=O)O)c1)NO [Compound 82, (S)-2-{3-[3-(7-Hydroxycarbamoyl-heptanoylamino)-benzyl]-ureido}-3-phenyl-propionic acid] | 0.101 to 1 µM |  |  | 
9 | CC(C)(C)SC[C@H](NCc1ccc(CNCc2ccc3cc(C(=O)NO)sc3c2)cc1)C(=O)O [Compound 114, (R)-3-tert-Butylsulfanyl-2-(4-{[(2-hydroxycarbamoyl-benzo[b]thiophen-6-ylmethyl)-amino]-methyl}-benzylamino)-propionic acid] | 0.101 to 1 µM |  |  | 
10 | CC(C)C[C@H](NC(=O)c1cccc(NC(=O)CCCCCCC(=O)NO)c1)C(=O)O [Compound 63, (S)-2-[3-(7-Hydroxycarbamoyl-heptanoylamino)-benzoylamino]-4-methyl-pentanoic acid] | 0.101 to 1 µM |  |  | 
11 | O=C(CCCCCCC(=O)Nc1cccc(C(=O)N[C@H](C(=O)O)c2ccccc2)c1)NO [Compound 61, (S)-[3-(7-Hydroxycarbamoyl-heptanoylamino)-benzoylamino]phenyl-acetic acid] | 0.101 to 1 µM | > 3.3 µM |  | 
12 | O=C(NO)c1cc2ccc(CNCc3ccc(CN4CCC[C@H]4C(=O)O)cc3)cc2s1 [Compound 112, (S)-1-(4-{[(2-Hydroxycarbamoyl-benzo[b]thiophen-6-ylmethyl)-amino]-methyl}-benzyl)-pyrrolidine-2-carboxylic acid] | 0.101 to 1 µM |  |  | 
13 | O=C(NO)c1cc2ccc(CNCC3CCC(CN[C@H](C(=O)O)c4ccccc4)CC3)cc2s1 (stereo partly drawn) [Compound 127, (S)-[(4-{[(2-Hydroxycarbamoyl-benzo[b]thiophen-6-ylmethyl)-amino]-methyl}-cyclohexylmethyl)-amino]-phenyl-acetic acid] | 0.101 to 1 µM |  |  | 
14 | CC(C)(C)OC[C@H](NCc1ccc(NC(=O)CCCCCCC(=O)NO)cc1)C(=O)O [Compound 90, (S)-3-tert-Butoxy-2-[4-(7-hydroxycarbamoyl-heptanoylamino)-benzylamino]-propionic acid] | 0.101 to 1 µM |  |  | 
15 | O=C(CCCCCNC(=O)c1cccc(CN[C@H](C(=O)O)c2ccccc2)c1)NO [Compound 70, (S)-[3-(5-Hydroxycarbamoyl-pentylcarbamoyl)-benzylamino]-phenyl-acetic acid] | 0.101 to 1 µM | > 3.3 µM |  | 
16 | CC(C)C[C@H](NC(=O)c1ccc(NC(=O)CCCCCCC(=O)NO)cc1)C(=O)O [Compound 99, (S)-2-[4-(7-Hydroxycarbamoyl-heptanoylamino)-benzoylamino]-4-methyl-pentanoic acid] | > 1 µM |  |  | 

More lines, now with the values ahead:

Row | IC50 [1] | IC50 (Hela cancer cell line; Homo sapiens, HeLa) | IC50 (HUT cancer cell line) | IC50 (Hela cancer cell line) | Compound
17 | 0.101 to 1 µM | > 3.3 µM |  |  | O=C(CCCCCCC(=O)Nc1cccc(CN[C@@H](Cc2ccccc2)C(=O)O)c1)NO [Compound 27, (S)-2-[3-(7-Hydroxycarbamoyl-heptanoylamino)-benzylamino]-3-phenyl-propionic acid]
18 | 0.101 to 1 µM |  |  | > 3.3 µM | O=C(CCCCCCC(=O)N1Cc2ccccc2C[C@H]1C(=O)N[C@@H](Cc1ccccc1)C(=O)O)NO [Compound 49, (S)-2-{[(S)-2-(7-Hydroxycarbamoyl-heptanoyl)-1,2,3,4-tetrahydro-isoquinoline-3-carbonyl]amino}-3-phenyl-propionic acid]
19 | 0.101 to 1 µM | 0.33 to 3.3 µM | 0.33 to 3.3 µM |  | O=C(CCCCCNC(=O)c1cccc(CN[C@H](C(=O)OC2CCCC2)c2ccccc2)c1)NO [Compound 69, (S)-[3-(5-Hydroxycarbamoyl-pentylcarbamoyl)-benzylamino]-phenyl-acetic acid cyclopentyl ester]
20 | 0.101 to 1 µM | > 3.3 µM |  |  | O=C(CCCCCCC(=O)Nc1cccc(CN[C@@H](CCc2ccccc2)C(=O)O)c1)NO [Compound 30, (S)-2-[3-(7-Hydroxycarbamoyl-heptanoylamino)-benzylamino]-4-phenyl-butyric acid]
21 | < 0.1 µM | > 3.3 µM |  |  | O=C(CCCCCCC(=O)N1CCc2c([nH]c3ccccc23)C1C(=O)N[C@@H](Cc1ccccc1)C(=O)O)NO (stereo partly drawn) [Compound 65, (S)-2-{[2-(7-Hydroxycarbamoyl-heptanoyl)-2,3,4,9-tetrahydro-1H-beta-carboline-1-carbonyl]-amino}-3-phenyl-propionic acid]
22 | < 0.1 µM | > 3.3 µM |  |  | O=C(CCCCCCC(=O)N1Cc2[nH]c3ccccc3c2C(C(=O)NC(Cc2ccccc2)C(=O)O)C1)NO [Compound 59, (S)-2-{[(S)-2-(7-Hydroxycarbamoyl-heptanoyl)-2,3,4,9-tetrahydro-1H-bet α-carboline-4-carbonyl]-amino}-3-phenyl-propionic acid]
23 | 0.101 to 1 µM |  |  |  | CC(C)C[C@H](NCC1CCC(CNCc2ccc3cc(C(=O)NO)sc3c2)CC1)C(=O)O (stereo partly drawn) [Compound 129, (S)-2-[(4-{[(2-Hydroxycarbamoyl-benzo[b]thiophen-6-ylmethyl)-amino]-methyl}-cyclohexylmethyl)-amino]-4-methyl-pentanoic acid]
24 | < 0.1 µM |  |  |  | O=C(CCCCCCC(=O)Nc1ccc(CN[C@H](C(=O)O)C2CCCCC2)cc1)NO [Compound 87, (S)-Cyclohexyl-[4-(7-hydroxycarbamoyl-heptanoylamino)-benzylamino]-acetic acid]
25 | < 0.1 µM |  |  |  | O=C(Cc1ccc(OCCCC(=O)N[C@@H](Cc2ccccc2)C(=O)O)cc1)Nc1ccc2sc(C(=O)NO)cc2c1 [Compound 103, (S)-2-(4-{4-[(2-Hydroxycarbamoyl-benzo[b]thiophen-5-ylcarbamoyl)-methyl]-phenoxy}-butyrylamino)-3-phenyl-propionic acid]
26 | < 0.1 µM |  |  |  | O=C(O)CNCc1ccc(CNCc2ccc3cc(C(=O)NO)sc3c2)cc1 [Compound 121, (4-{[(2-Hydroxycarbamoyl-benzo[b]thiophen-6-ylmethyl)-amino]-methyl}-benzylamino)-acetic acid]
27 | < 0.1 µM |  |  |  | O=C(NO)c1cc2ccc(CNCc3ccc(CN[C@H](C(=O)O)c4ccccc4)cc3)cc2s1 [Compound 125, (S)-(4-{[(2-Hydroxycarbamoyl-benzo[b]thiophen-6-ylmethyl)-amino]-methyl}-benzylamino)-phenyl-acetic acid]
